Reference: article PMC5218480 (PLoS ONE, 2017)

Test system: MV-4-11 cells
Test: Gene expression microarray analysis (Affymetrix PrimeView) and GSEA
Format: cell-based, human
Set-up: RFU PODN (11730768_x_at) / Fold change /veh PODN (11730768_x_at) / RFU LINC00158 (11744669_a_at) / Fold change /veh LINC00158 (11744669_a_at) / RFU DUSP10 (11751237_a_at) / Fold change /veh DUSP10 (11751237_a_at) / RFU ID3 (11757404_x_at) / Fold change /veh ID3 (11757404_x_at) / RFU PLEKHG5 (11737974_s_at) / Fold change /veh PLEKHG5 (11737974_s_at) / RFU LRRC4B (11730491_at) / Fold change /veh LRRC4B (11730491_at) / RFU GIMAP4 (11747438_a_at) / Fold change /veh GIMAP4 (11747438_a_at) / RFU KRT8 (11758183_x_at) / Fold change /veh KRT8 (11758183_x_at) / RFU CNN1 (11734310_a_at) / Fold change /veh CNN1 (11734310_a_at) / RFU VPS37D (11726825_at) / Fold change /veh VPS37D (11726825_at) / RFU C10orf10 (11716522_x_at) / Fold change /veh C10orf10 (11716522_x_at) / RFU KIR2DL2 /// KIR2DL4 /// KIR2DL5A /// KIR2DL5B /// KIR2DS1 /// KIR2DS2 /// KIR2DS3 /// KIR2DS4 /// KIR3DL3 /// KIR3DL3 /// KIR3DS1 (11738374_at) / Fold change /veh KIR2DL2 /// KIR2DL4 /// KIR2DL5A /// KIR2DL5B /// KIR2DS1 /// KIR2DS2 /// KIR2DS3 /// KIR2DS4 /// KIR3DL3 /// KIR3DL3 /// KIR3DS1 (11738374_at) / RFU C1QL1 (11718748_at) / Fold change /veh C1QL1 (11718748_at) / RFU TMPRSS4 (11747572_a_at) / Fold change /veh TMPRSS4 (11747572_a_at) / RFU HAMP (11756126_x_at) / Fold change /veh HAMP (11756126_x_at) / RFU RNFT2 (11725882_a_at) / Fold change /veh RNFT2 (11725882_a_at) / RFU NR4A2 (11747474_a_at) / Fold change /veh NR4A2 (11747474_a_at) / RFU ABCC12 (11746883_a_at) / Fold change /veh ABCC12 (11746883_a_at) / RFU TMEM136 (11760407_x_at) / Fold change /veh TMEM136 (11760407_x_at) / RFU CLDN22 /// WWC2 (11732394_at) / Fold change /veh CLDN22 /// WWC2 (11732394_at) / RFU HLA-DPB1 (11760878_x_at) / Fold change /veh HLA-DPB1 (11760878_x_at) / RFU SPINT1 (11716480_a_at) / Fold change /veh SPINT1 (11716480_a_at) / RFU GAP43 (11754022_s_at) / Fold change /veh GAP43 (11754022_s_at) / RFU A4GNT (11735810_at) / Fold change /veh A4GNT (11735810_at) / RFU PRB3 (11715151_x_at) / Fold change /veh PRB3 (11715151_x_at) / RFU TUBB4B (11761932_at) / Fold change /veh TUBB4B (11761932_at) / RFU CAPN14 (11732068_a_at) / Fold change /veh CAPN14 (11732068_a_at) / RFU TMCC2 (11721928_a_at) / Fold change /veh TMCC2 (11721928_a_at) / RFU IRGQ (11745062_a_at) / Fold change /veh IRGQ (11745062_a_at) / RFU FAM174B (11720279_a_at) / Fold change /veh FAM174B (11720279_a_at) / RFU TMPRSS4 (11748680_a_at) / Fold change /veh TMPRSS4 (11748680_a_at) / RFU FAM212B (11763350_a_at) / Fold change /veh FAM212B (11763350_a_at) / RFU PLEKHG5 (11743358_a_at) / Fold change /veh PLEKHG5 (11743358_a_at) / RFU ZSCAN30 (11745921_a_at) / Fold change /veh ZSCAN30 (11745921_a_at) / RFU CMKLR1 (11741424_a_at) / Fold change /veh CMKLR1 (11741424_a_at) / RFU LOC101060620 /// MAPK8IP1 (11723275_at) / Fold change /veh LOC101060620 /// MAPK8IP1 (11723275_at) / RFU SPTSSB (11747773_x_at) / Fold change /veh SPTSSB (11747773_x_at) / RFU PRSS12 (11739890_at) / Fold change /veh PRSS12 (11739890_at) / RFU BIN1 (11741810_x_at) / Fold change /veh BIN1 (11741810_x_at) / RFU WNT11 (11732464_a_at) / Fold change /veh WNT11 (11732464_a_at) / RFU C10orf10 (11716521_a_at) / Fold change /veh C10orf10 (11716521_a_at) / RFU C5orf56 (11738089_at) / Fold change /veh C5orf56 (11738089_at) / RFU CYB561 (11721691_x_at) / Fold change /veh CYB561 (11721691_x_at) / RFU ANKRD19P (11752326_a_at) / Fold change /veh ANKRD19P (11752326_a_at) / RFU OR2T12 /// OR2T33 /// OR2T8 (11738714_s_at) / Fold change /veh OR2T12 /// OR2T33 /// OR2T8 (11738714_s_at) / RFU VCAN (11748164_a_at) / Fold change /veh VCAN (11748164_a_at) / RFU JSRP1 (11732532_at) / Fold change /veh JSRP1 (11732532_at) / RFU KRTAP10-11 (11738290_x_at) / Fold change /veh KRTAP10-11 (11738290_x_at) / RFU MYO3A (11730013_a_at) / Fold change /veh MYO3A (11730013_a_at) / RFU EBF3 (11725865_a_at) / Fold change /veh EBF3 (11725865_a_at) / RFU CAMK2N1 (11719241_x_at) / Fold change /veh CAMK2N1 (11719241_x_at) / RFU C5orf56 (11738088_a_at) / Fold change /veh C5orf56 (11738088_a_at) / RFU OLFML3 (11715873_a_at) / Fold change /veh OLFML3 (11715873_a_at) / RFU LOC100653217 /// NTM (11731650_a_at) / Fold change /veh LOC100653217 /// NTM (11731650_a_at) / RFU MAPK11 (11762145_a_at) / Fold change /veh MAPK11 (11762145_a_at) / RFU FIZ1 (11724087_x_at) / Fold change /veh FIZ1 (11724087_x_at) / RFU OASL (11726364_x_at) / Fold change /veh OASL (11726364_x_at) / RFU SOX15 (11748057_x_at) / Fold change /veh SOX15 (11748057_x_at) / RFU CD79A (11719716_a_at) / Fold change /veh CD79A (11719716_a_at) / RFU HIST1H1D (11736915_at) / Fold change /veh HIST1H1D (11736915_at) / RFU CASKIN2 (11723855_a_at) / Fold change /veh CASKIN2 (11723855_a_at) / RFU LOC730098 (11760151_x_at) / Fold change /veh LOC730098 (11760151_x_at) / RFU OR4N2 (11742367_at) / Fold change /veh OR4N2 (11742367_at) / RFU PRRT2 (11749266_a_at) / Fold change /veh PRRT2 (11749266_a_at) / RFU SNX32 (11753110_a_at) / Fold change /veh SNX32 (11753110_a_at) / RFU CDHR5 (11726645_a_at) / Fold change /veh CDHR5 (11726645_a_at) / RFU RCAN1 (11760418_a_at) / Fold change /veh RCAN1 (11760418_a_at) / RFU FAM167A (11723789_a_at) / Fold change /veh FAM167A (11723789_a_at) / RFU FAM26E (11764081_at) / Fold change /veh FAM26E (11764081_at) / RFU ISYNA1 (11749810_s_at) / Fold change /veh ISYNA1 (11749810_s_at) / RFU ACY1 (11761880_at) / Fold change /veh ACY1 (11761880_at) / RFU 11764098_at / Fold change /veh 11764098_at / RFU SAMD14 (11745864_x_at) / Fold change /veh SAMD14 (11745864_x_at) / RFU NPB (11741838_a_at) / Fold change /veh NPB (11741838_a_at) / RFU TMPRSS6 (11731388_a_at) / Fold change /veh TMPRSS6 (11731388_a_at) / RFU KRTAP10-2 (11738614_at) / Fold change /veh KRTAP10-2 (11738614_at) / RFU ARHGAP8 /// PRR5-ARHGAP8 (11727945_x_at) / Fold change /veh ARHGAP8 /// PRR5-ARHGAP8 (11727945_x_at) / RFU KRTAP5-7 /// NADSYN1 (11734609_at) / Fold change /veh KRTAP5-7 /// NADSYN1 (11734609_at) / RFU RASL12 (11751679_a_at) / Fold change /veh RASL12 (11751679_a_at) / RFU CDKN2B (11736163_a_at) / Fold change /veh CDKN2B (11736163_a_at) / RFU PRF1 (11729649_at) / Fold change /veh PRF1 (11729649_at) / RFU, ZNF638 /// ZNF638-IT1 / Fold change vs veh, ZNF638 /// ZNF638-IT1 / RFU, PANK3 / Fold change vs veh, PANK3 / RFU, SH3YL1 / Fold change vs veh, SH3YL1 / RFU, ZEB2 / Fold change vs veh, ZEB2 / RFU, NRIP1 / Fold change vs veh, NRIP1 / RFU, PTTG1IP / Fold change vs veh, PTTG1IP / RFU, CAPN2 / Fold change vs veh, CAPN2 / RFU, MED14 / Fold change vs veh, MED14 / RFU, SNORA58 / Fold change vs veh, SNORA58 / RFU, C1orf63 / Fold change vs veh, C1orf63 / RFU, LRRFIP1 / Fold change vs veh, LRRFIP1 / RFU, NDUFAF7 / Fold change vs veh, NDUFAF7 / RFU, SLC12A2 / Fold change vs veh, SLC12A2 / RFU, IBTK / Fold change vs veh, IBTK / RFU, ESF1 / Fold change vs veh, ESF1 / Fold change vs veh, TMEM50B / RFU, TAOK1 / Fold change vs veh, TAOK1 / RFU, ACBD3 / Fold change vs veh, ACBD3 / RFU, TMA16 / Fold change vs veh, TMA16 / RFU, RWDD3 / Fold change vs veh, RWDD3 / RFU, BCAT1 / Fold change vs veh, BCAT1 / RFU, EDEM3 / Fold change vs veh, EDEM3 / RFU, TMEM33 / Fold change vs veh, TMEM33 / RFU, WDR75 / Fold change vs veh, WDR75 / RFU, AHCTF1 / Fold change vs veh, AHCTF1 / RFU, TFRC / Fold change vs veh, TFRC / RFU, ZDHHC17 / Fold change vs veh, ZDHHC17 / RFU, NOM1 / Fold change vs veh, NOM1 / RFU, ARL8B / Fold change vs veh, ARL8B / RFU, ZBTB11 / Fold change vs veh, ZBTB11 / RFU, TAMM41 / Fold change vs veh, TAMM41 / RFU, KIAA1704 /// LOC100996395 / Fold change vs veh, KIAA1704 /// LOC100996395 / RFU, ING1 / Fold change vs veh, ING1 / RFU, TRMT61B / Fold change vs veh, TRMT61B / RFU, FUBP3 / Fold change vs veh, FUBP3 / RFU, TP53 / Fold change vs veh, TP53 / RFU, TNKS2 / Fold change vs veh, TNKS2 / RFU, ZFP14 / Fold change vs veh, ZFP14 / RFU, ACTR2 / Fold change vs veh, ACTR2 / RFU, PPP3R1 / Fold change vs veh, PPP3R1 / RFU, PIK3R1 / Fold change vs veh, PIK3R1 / RFU, HNRNPA1 / Fold change vs veh, HNRNPA1 / RFU, RNF170 / Fold change vs veh, RNF170 / RFU, ZNF28 / Fold change vs veh, ZNF28 / RFU, RNGTT / Fold change vs veh, RNGTT / RFU, OGT / Fold change vs veh, OGT / RFU, BRD1 / Fold change vs veh, BRD1 / RFU, MARS / Fold change vs veh, MARS / RFU, ZNF655 / Fold change vs veh, ZNF655 / RFU, FAHD1 / Fold change vs veh, FAHD1 / RFU, BDP1 / Fold change vs veh, BDP1 / RFU, LRRCC1 / Fold change vs veh, LRRCC1 / RFU, ARID1A / Fold change vs veh, ARID1A / RFU, ZNF146 / Fold change vs veh, ZNF146 / RFU, ZNF330 / Fold change vs veh, ZNF330 / RFU, GPN3 / Fold change vs veh, GPN3 / RFU, C9orf123 / Fold change vs veh, C9orf123 / RFU, N4BP2L2 / Fold change vs veh, N4BP2L2 / RFU, ARFIP1 / Fold change vs veh, ARFIP1 / RFU, FAM179B / Fold change vs veh, FAM179B / RFU, BCL10 / Fold change vs veh, BCL10 / RFU, UHRF1BP1L / Fold change vs veh, UHRF1BP1L / RFU, BET1 / Fold change vs veh, BET1 / RFU, CNOT2 / Fold change vs veh, CNOT2 / RFU, ZNF268 / Fold change vs veh, ZNF268 / Fold change vs veh, ZNF507 / RFU, DGCR2 / Fold change vs veh, DGCR2 / RFU, WDSUB1 / Fold change vs veh, WDSUB1 / Fold change vs veh, HSP90B1 /// MIR3652 / RFU, ADSS / Fold change vs veh, ADSS / RFU, GK / Fold change vs veh, GK / RFU, ZNF148 / Fold change vs veh, ZNF148 / RFU, TAF9 / Fold change vs veh, TAF9 / RFU, SLC1A5 / Fold change vs veh, SLC1A5 / RFU, SLMO2 / Fold change vs veh, SLMO2 / RFU, ABCC4 / Fold change vs veh, ABCC4 / RFU, LOC101060439 /// RAP1B / Fold change vs veh, LOC101060439 /// RAP1B / RFU, RFX7 / Fold change vs veh, RFX7 / RFU, GTPBP10 / Fold change vs veh, GTPBP10 / RFU, CNEP1R1 / Fold change vs veh, CNEP1R1 / RFU, BIVM-ERCC5 /// ERCC5 / Fold change vs veh, BIVM-ERCC5 /// ERCC5 / RFU, ILF3 / Fold change vs veh, ILF3 / RFU 11762660_at / Fold change /veh 11762660_at / RFU VCAN (11757783_s_at) / Fold change /veh VCAN (11757783_s_at) / RFU DDX43 (11728927_at) / Fold change /veh DDX43 (11728927_at) / RFU KRT8 (11758188_x_at) / Fold change /veh KRT8 (11758188_x_at) / RFU NKD1 (11759106_at) / Fold change /veh NKD1 (11759106_at) / RFU SRD5A1 (11742802_a_at) / Fold change /veh SRD5A1 (11742802_a_at) / RFU TPSAB1 /// TPSB2 (11721975_s_at) / Fold change /veh TPSAB1 /// TPSB2 (11721975_s_at) / RFU GSTM3 (11746129_a_at) / Fold change /veh GSTM3 (11746129_a_at) / RFU IL23R (11737362_x_at) / Fold change /veh IL23R (11737362_x_at) / RFU TMEM51 (11727254_a_at) / Fold change /veh TMEM51 (11727254_a_at) / RFU PIWIL2 (11732686_x_at) / Fold change /veh PIWIL2 (11732686_x_at) / RFU ORM1 (11744905_x_at) / Fold change /veh ORM1 (11744905_x_at) / RFU CCDC152 (11743942_at) / Fold change /veh CCDC152 (11743942_at) / RFU ECM1 (11717891_a_at) / Fold change /veh ECM1 (11717891_a_at) / RFU IL23R (11748794_a_at) / Fold change /veh IL23R (11748794_a_at) / RFU TNFAIP8L3 (11732012_x_at) / Fold change /veh TNFAIP8L3 (11732012_x_at) / RFU MBOAT4 (11741988_at) / Fold change /veh MBOAT4 (11741988_at) / RFU 11764193_at / Fold change /veh 11764193_at / RFU TMEM53 (11763286_at) / Fold change /veh TMEM53 (11763286_at) / RFU MAGEB2 (11727129_at) / Fold change /veh MAGEB2 (11727129_at) / RFU TMEM200A (11744735_a_at) / Fold change /veh TMEM200A (11744735_a_at) / RFU CCDC152 (11751479_a_at) / Fold change /veh CCDC152 (11751479_a_at) / RFU FAM211A (11726209_a_at) / Fold change /veh FAM211A (11726209_a_at) / RFU RGS16 (11746705_a_at) / Fold change /veh RGS16 (11746705_a_at) / RFU VCAN (11755009_s_at) / Fold change /veh VCAN (11755009_s_at) / RFU RHOB (11743442_s_at) / Fold change /veh RHOB (11743442_s_at) / RFU RGS16 (11720943_a_at) / Fold change /veh RGS16 (11720943_a_at) / RFU RGS16 (11720944_at) / Fold change /veh RGS16 (11720944_at) / RFU, VPS4B / Fold change vs veh, VPS4B / RFU, CREB1 / Fold change vs veh, CREB1 / RFU, DNAJC13 / Fold change vs veh, DNAJC13 / RFU, GNAQ / Fold change vs veh, GNAQ / RFU, CDK5R1 / Fold change vs veh, CDK5R1 / RFU, ZRANB3 / Fold change vs veh, ZRANB3 / RFU, CUL4A / Fold change vs veh, CUL4A / RFU, CCNY / Fold change vs veh, CCNY / RFU, UFL1 / Fold change vs veh, UFL1 / RFU, COG3 / Fold change vs veh, COG3 / RFU, DIAPH2 / Fold change vs veh, DIAPH2 / RFU, SKA2 / Fold change vs veh, SKA2 / RFU, AFF3 / Fold change vs veh, AFF3 / RFU, LMF1 / Fold change vs veh, LMF1 / RFU, IPO11 / Fold change vs veh, IPO11 / RFU, DFFB / Fold change vs veh, DFFB / RFU, FOXP1 / Fold change vs veh, FOXP1 / RFU, CARD8 / Fold change vs veh, CARD8 / RFU, STRN3 / Fold change vs veh, STRN3 / RFU, ADK / Fold change vs veh, ADK / RFU, RASSF2 / Fold change vs veh, RASSF2 / RFU, WIPF1 / Fold change vs veh, WIPF1 / RFU, LARP1B / Fold change vs veh, LARP1B / RFU, RASA1 / Fold change vs veh, RASA1 / RFU, RB1 / Fold change vs veh, RB1 / RFU, PPFIA1 / Fold change vs veh, PPFIA1 / RFU, MAT2A / Fold change vs veh, MAT2A / RFU, CCT5 / Fold change vs veh, CCT5 / RFU, WDR92 / Fold change vs veh, WDR92 / RFU, CUX1 / Fold change vs veh, CUX1 / RFU, TTC7A / Fold change vs veh, TTC7A / RFU, TMEM135 / Fold change vs veh, TMEM135 / RFU, DEPTOR / Fold change vs veh, DEPTOR / RFU, CPM / Fold change vs veh, CPM / RFU, DNAJB6 / Fold change vs veh, DNAJB6 / RFU, CACNA2D3 / Fold change vs veh, CACNA2D3 / RFU, DTX4 / Fold change vs veh, DTX4 / RFU, TFCP2 / Fold change vs veh, TFCP2 / RFU, GMCL1 /// GMCL1P1 / Fold change vs veh, GMCL1 /// GMCL1P1 / RFU, AEBP2 / Fold change vs veh, AEBP2 / RFU, SNHG1 /// SNORD22 /// SNORD25 /// SNORD26 /// SNORD27 /// SNORD28 /// SNORD29 /// SNORD31 / Fold change vs veh, SNHG1 /// SNORD22 /// SNORD25 /// SNORD26 /// SNORD27 /// SNORD28 /// SNORD29 /// SNORD31 / Fold change (Aza/veh), C12orf56 (ProbeSet 11735607_a_at) / Fold change (ACY-1035/veh), C12orf56 (ProbeSet 11735607_a_at) / Fold change (Aza/veh), FGFR1OP (ProbeSet 11751329_s_at) / Fold change (ACY-1035/veh), FGFR1OP (ProbeSet 11751329_s_at) / Fold change (Aza/veh), VPS36 (ProbeSet 11739960_a_at) / Fold change (ACY-1035/veh), VPS36 (ProbeSet 11739960_a_at) / RFU SYPL1 (11715823_x_at) / Fold change /veh SYPL1 (11715823_x_at) / RFU IGFBP7 (11715501_s_at) / Fold change /veh IGFBP7 (11715501_s_at) / RFU REEP3 (11722064_at) / Fold change /veh REEP3 (11722064_at) / RFU IGLL1 (11728026_x_at) / Fold change /veh IGLL1 (11728026_x_at): dose or concentration left out as unconfirmed
Details: ProbeSet 11719817_x_at; LIST B

Structure (SMILES): Nc1ncn([C@@H]2O[C@H](CO)[C@@H](O)[C@H]2O)c(=O)n1 [azacitidine]
- Fold change vs veh, BET1: 0.89
